Reference: BigSolDB 2.1

Cc1ccc(CO)cc1
solubility (mole fraction)
Conditions	278.15 K	283.15 K	288.15 K	293.15 K	298.15 K	303.15 K	308.15 K	313.15 K
in 1,2-dichloroethane	0.166	0.214	0.28	0.343	0.418	0.506	0.585	0.685
in acetone	0.226	0.272	0.321	0.384	0.431	0.497	0.568	0.642
in acetonitrile	0.162	0.214	0.287	0.361	0.454	0.548	0.638	0.735
in dichloromethane	0.4	0.429	0.466	0.502	0.537	0.588	0.646	0.729
in ethanol	0.236	0.276	0.327	0.379	0.44	0.508	0.581	0.662
in ethyl acetate	0.215	0.259	0.308	0.369	0.433	0.511	0.587	0.671
in ethyl formate	0.152	0.191	0.242	0.303	0.372	0.449	0.537	0.62
in isobutanol	0.231	0.275	0.321	0.373	0.446	0.513	0.594	0.667
in isopropanol	0.248	0.283	0.33	0.386	0.448	0.527	0.597	0.674
in n-butanol	0.252	0.287	0.334	0.385	0.45	0.51	0.584	0.698
in n-propanol	0.253	0.293	0.34	0.398	0.454	0.518	0.595	0.674
